Read-outs that look alike come from different tables or passages of the source.

In assay [1] the test system is Human peripheral CD19+ B cells. Kind of assay: Cellular SLE model: immunoglobulin production in human peripheral B cells stimulated via TLR9 (ODN2006). It is filed as cell-based. Particulars: for IC50: human B cell, ODN2006 and IL-2, 6 days; for Inhibition of IgG and IgM production (in words): TLR9 stimulated by ODN2006 and IFNα. An excerpt: Systemic lupus erythematosus (SLE) is a chronic inflammatory autoimmune disease and can affect several organs and systems. It is characterized by high production of autoantibodies against nuclear compounds. TLR7/8/9 are responsible for nucleic acid recognition and they trigger proinflammatory responses through activation of […] and Type I IFN production, making a bridge between the innate and the adaptive immune systems. TLR9 signaling pathway was adopted for cellular SLE model using human peripheral B cells to test potency of SYK inhibitor of Formula (I).
Human peripheral CD19+ B cells from an adult healthy donor were purchased from Sanguine Biosciences (Sherman Oaks, Calif.). B cells were cultured in 96-well plates with complete RPMI 1640 medium (Corning, Tewksbury, Mass.) supplemented with 10% heat-inactivated FBS (Life Technologies, Grand Island, N.Y.) and penicillin/streptomycin (Corning). B cells were stimulated with 1 μM ODN2006 (InvivoGen, San Diego, Calif.) and 20 ng/ml IFNα (PBL Assay Science, Piscataway, N.J.) for 3 days for toll-like receptor-9 (TLR-9)-mediated B cell growth. To differentiate naïve B cells into plasma cells, peripheral B cells were differentiated with 50 nM ODN2006 and 10 ng/ml IL-2 in a presence of various concentrations of SYK inhibitors for 6 days. Culture supernatants were collected and IgM and IgG production was measured using human IgM or IgG ELISA kit (BioLegend).

The test system of assay [2] is Collagen-induced arthritis in DBA/1J mice. The assay is described as follows: Collagen-induced arthritis (CIA) mouse model, macroscopic paw scoring. It is filed as in vivo. The following applies: for CIA index (arthritic score of test group / vehicle group x 100): 30 mg/kg/day once daily oral gavage, vehicle = 100.0. As for the experimental part:
CIA mouse model was induced in DBA/1J mice (Japan Charles River Breeding Laboratories, Kanagawa, Japan) with 5 to 6 weeks of age. Animals were maintained at a temperature of 20±5° C. and a relative humidity of 40˜60%.
Bovine type II collagen (CII, 2 mg/ml dissolved in 0.05 M acetic acid, Chondrex, Redmond, Wash.) was emulsified in equal volumes of Freund's complete adjuvant (4 mg/ml of Mycobacterium tuberculosis strain H37Ra; Chondrex, Redmond, Wash.). On day 0, mice were immunized intradermally at the base of the tail with 100 μg bovine type II collagen emulsified in Freund's complete adjuvant. On day 21, all mice were boosted with an intraperitoneal injection of 100 μg type II collagen.
These compounds were dissolved in NMP/20% cyclodextrin/PEG400 5:45:50 solution and filtered by […] membrane filter. All the test substances were administered once daily at 30 mg/kg/day by oral gavage for 3 weeks.
The gradual onset of arthritis usually starts approximately 3 weeks after initial immunization. The progression of CIA was evaluated by the macroscopic scoring of paws at intervals of 3 days. The edema and swelling of each paw was scored visually as was described previously, using a scale of 0-4, where 0=no visible abnormalities, 1=mild redness or swelling of the wrist or up to three inflamed digits, 2=more than three inflamed digits or moderate redness and swelling of the ankle or wrist, 3=severe ankle and wrist inflammation, 4=extensive ankle and wrist inflammation including all digits. Therefore, the score of each mouse was calculated for the four limbs (maximum total score of 16 for each mouse) (Courtenay J S, Dallman M J, Dayan A D, et al., Immunisation against heterologous type II collagen induces arthritis in mice, Nature, 1980, 283, 666-668)
Arthritis was considered to be present if the score was >2. The blind scoring was performed by four independent observers. In this study, data was calculated by following equation. […] Results

A further assay relates to THP-1 cells. Kind of assay: SYK-dependent TNF-α release assay (IgG stimulation), ELISA. The following applies: THP-1 cells on human IgG-coated plate, 18 hours; read-out: TNF-α release inhibition, IgG stimulation IC50. It is filed as cell-based. As for the experimental part:
In order to address cellular potency of Compounds of Formula (I), TNF-a production was measured on treatment of a series of concentration of SYK inhibitor in THP-1 cells.
For SYK-dependent TNF-α release assay (i.e., via IgG stimulation), THP-1 cells derived from human monocytic cells were obtained from the American Type Culture Collection (ATCC, Manassas, Va.). This cell line was maintained with a Roswell Park Memorial Institute (RPMI) medium (GIBCO) containing 10% fetal bovine serum (FBS; GIBCO) and 0.05 mM solution of 2-mercaptoethanol. The THP-1 cells were seeded at 1×10^5 cells/100 μL/well into human IgG (10 ng/well, INVITROGEN)-coated 96 well culture plate, and serially diluted compound was then added. After an 18 hours of incubation period at 37° C., supernatants were collected for the determination of the TNF-α level by enzyme-linked immunosorbent assay (ELISA), and the remaining cells were subjected to an MTT (yellow tetrazolium salt) assay to determine the cytotoxic effects of the compound. The IC50 value of the test compound was calculated at Gradpad Prism 5 unless otherwise specified.

Another assay deals with OCI-LY1. Kind of assay: DLBCL cell proliferation, ATPLite assay. It counts as cell-based, human. The following applies: for IC50: OCI-LY1, 72 hours, read-out: Inhibition of proliferation IC50; for Inhibition of proliferation (in words): OCI-LY1. An excerpt:
(§1) Several lines of evidence support the role of B cell receptor (BCR)-mediated survival signals in certain B cell malignancies such as non-Hodgkin lymphomas (NHL) including diffuse large B cell lymphoma (DLBCL). B cell receptor (BCR) signaling pathway components represent promising treatment targets in diffuse large B cell lymphoma (DLBCL) and additional B cell tumors. In order to address whether SYK inhibitor of Compounds of Formula (I), cellular viability of diffuse large B cell lymphoma (DLBCL) cells was measured on treatment of a series of concentration of SYK inhibitor.
(§2) The DLBCL cells, SUDHL4, SUDHL6 and OCI-LY1 […] were obtained from the American Type Culture Collection (ATCC, Manassas, Va., USA) or DSMZ (Braunschweig, Germany). […] The SUDHL4, SUDHL6 and OCI-LY1 cells were seeded at 1×10^5 cells/100 μL/well into 96 well culture plate, and serially diluted compound was then added. After an 72 hours of incubation period at 37° C., cells were subjected to an ATPLite assay (PerkinElmer) to determine the cytotoxic effects of the compound. The IC50 value of the test compound was calculated at Gradpad Prism 5 unless otherwise specified.

Another assay deals with SUDHL6. Kind of assay: DLBCL cell proliferation, ATPLite assay. It counts as cell-based, human. Particulars: for IC50: SUDHL6, 72 hours, read-out: Inhibition of proliferation IC50; for Inhibition of proliferation (in words): SUDHL6.
Excerpt: as §1, §2
For orientation: In ATP-based viability assays light output follows the ATP content of the culture.

A further assay concerns SUDHL4. Kind of assay: DLBCL cell proliferation, ATPLite assay. It counts as cell-based, human. Particulars: for IC50: SUDHL4, 72 hours, read-out: Inhibition of proliferation IC50; for Inhibition of proliferation (in words): SUDHL4.
Excerpt: as §1, §2

A further assay has as its target full-length human SYK (Homo sapiens (Human), UniProt P43405). Kind of assay: Inhibition of enzymatic SYK kinase activity (LANCE Ulight TK peptide). It counts as biochemical. The following applies: ATP at Km (15 uM), 30 min pre-incubation. The procedure: Compounds of the present invention were assayed to measure their capacity to inhibit a spleen tyrosine kinase (SYK).
Compounds of the invention were initially diluted to 10 mM in 100% DMSO (CALBIOCHEM™) for storage and made into kinase buffer solution to create a compound concentration ranging from 1 uM and 10 uM. Serial dilutions of compounds of the invention were dispensed into a 96-well plate (GREINER BIOSCIENCES™) at 6 μL each. Purified full-length human SYK (CARNA BIOSCIENCES™) were diluted in kinase buffer and added to the compound solutions and pre-incubated for 30 minutes at room temperature. […] The reaction mixture was incubated for 1 hour. Following the incubation, the stop solution made with EDTA, water, and Lance detection buffer ([…]™) was added (12 μL each) to stop phosphorylation.
A general note: TR-FRET usually uses a lanthanide donor and a delayed reading to cut background.

[3] abbreviates: 144 h, read-out: Inhibition of immunoglobulin production, IgG IC50.
The mark [4] stands for this setting: 144 h, read-out: Inhibition of immunoglobulin production, IgM IC50.

For `Cc1nn(-c2ccnc(Nc3ccc4c(c3)c(C(=O)C3CC3)cn4C)n2)cc1CN1C[C@H](O)CO1` [Compound 1, (S)-cyclopropyl(5-(4-(4-((4-hydroxyisoxazolidin-2-yl)methyl)-3-methyl-1H-pyrazol-1-yl)pyrimidin-2-ylamino)-1-methyl-1H-indol-3-yl)methanone], the IC50 in assay [1] (setting [3]) was found to be 296 nM; in assay [1] (setting [4]), 232 nM; in the assay with THP-1 cells, 52 nM; in the assay with OCI-LY1 (Homo sapiens) it was 1830 nM; with SUDHL6 (Homo sapiens, SU-DHL-6), 2840 nM; in the assay on SUDHL4 (Homo sapiens, SU-DHL-4), 1070 nM. Further, the “Inhibition of IgG and IgM production (in words)” value in assay [1] was “potent inhibition”. In assay [2] (30 mg/kg/day oral, versus R788), the “Inhibition in arthritis phenotype indicated by CIA, compared with R788 (in words)” value is “stronger inhibition”. Also, the “CIA index (arthritic score of test group / vehicle group x 100)” value was 3.0 ± 2.8% in assay [2] (day 4); 24.0 ± 9.2% in assay [2] (day 7); 40.1 ± 13.8% in assay [2] (day 10); 36.2 ± 12.0% in assay [2] (day 13); 33.5 ± 10.5% in assay [2] (day 17); 33.6 ± 10.4% in assay [2] (day 19). In addition, the “Inhibition of proliferation (in words)” value in the assay with OCI-LY1, with SUDHL6 and with SUDHL4 was “potent inhibition” each time.
For `Cn1cc(C(=O)C2CC2)c2cc(Nc3nccc(-n4cc(CN5C[C@H](O)CO5)cn4)n3)ccc21` [Compound 30, (S)-cyclopropyl(5-(4-(4-((4-hydroxyisoxazolidin-2-yl)methyl)-1H-pyrazol-1-yl)pyrimidin-2-ylamino)-1-methyl-1H-indol-3-yl)methanone], the IC50 was found to be 2.46 nM against full-length human SYK; 188 nM in assay [1] (setting [3]); 90 nM in assay [1] (setting [4]); 17 nM in the assay on THP-1 cells; 2300 nM in the assay with OCI-LY1 (Homo sapiens); 929 nM in the assay with SUDHL6 (Homo sapiens, SU-DHL-6). For the same compound, the IC50 in the assay on SUDHL4 (Homo sapiens, SU-DHL-4) came out at 952 nM. In assay [1], the “Inhibition of IgG and IgM production (in words)” value was “potent inhibition”. In addition, the “Inhibition of proliferation (in words)” value in the assay with OCI-LY1, in the assay on SUDHL6 and in the assay with SUDHL4 was “potent inhibition” in each case.
With `COc1cc(Nc2ncc(F)c(Nc3ccc4c(n3)NC(=O)C(C)(C)O4)n2)cc(OC)c1OC` [Compound R406, reference compound], the IC50 in assay [1] (read-out: Inhibition of immunoglobulin production, IgG IC50) worked out at 369 nM; in assay [1] (read-out: Inhibition of immunoglobulin production, IgM IC50) it was 180 nM; in the assay with THP-1 cells, 217 nM; in the assay with OCI-LY1 it was 3890 nM; in the assay on SUDHL6, 3230 nM; in the assay with SUDHL4 it was 3670 nM.

(Values after patent US9212178B2, “Substituted pyrimidine compounds and their use as SYK inhibitors” (Genosco, priority 2013, dated 2015).)
